The data set is described as follows: Stability: hourly moisture content (moisture absorption from the air). The class given is physicochemical. The text has this:
As a result, the moisture content increased, as the time went by. […] The elementary analysis data for the aforementioned hydrates is illustrated in the following Table 2.

SMILES strings stand for the structures.

These results are taken from patent US7309788B2, “Method for preparing pyrimidinone compound and pharmaceutically acceptable salts thereof” (Boryung Pharmaceutical Co., Ltd., priority 2001, dated 2007).

For `CCCCc1nc(C)c(CC(=S)N(C)C)c(=O)n1Cc1ccc(-c2ccccc2-c2nnn[nH]2)cc1` [Example 3, 2-n-butyl-5-dimethylaminothiocarbonylmethyl-6-methyl-3-[[2′-(1 H-tetrazol-5-yl)biphenyl-4-yl]methyl]-pyrimidin-4(3H)-one], the moisture content by setting is: (60% RH, Time 1 hour) 6.2%; (60% RH, Time 2 hour) 9.1%; (60% RH, Time 3 hour) 9.15%; (60% RH, Time 4 hour) 9.1%; (60% RH, Time 5 hour) 9.2%; (60% RH, Time 6 hour) 9.1%. In addition, the moisture content was 9.05% (75% RH, Time 1 hour); 9.1% (75% RH, Time 2 hour); 9.1% (75% RH, Time 3 hour); 9.15% (75% RH, Time 4 hour); 9.2% (75% RH, Time 5 hour); 9.1% (75% RH, Time 6 hour). The moisture content reads like this: (Room temperature & Room humidity, Time 1 hour) 3.4%; (Room temperature & Room humidity, Time 2 hour) 5.6%; (Room temperature & Room humidity, Time 3 hour) 9.1%; (Room temperature & Room humidity, Time 4 hour) 9.2%; (Room temperature & Room humidity, Time 5 hour) 9.1%; (Room temperature & Room humidity, Time 6 hour) 9.1%.
